Assay results taken from patent US20110159019A1, “2,4-DIAMINOPYRIMIDINE COMPOUND” (priority 2008, published 2011).
Like-named read-outs stand apart in the source and are kept apart here.

How the values were obtained:
[1] = target: T1, Full-length human PKCθ (Homo sapiens, UniProt Q04759); experiment: Measurement of human PKCθ enzyme inhibition activity (HTRF KinEASE S1 kit); format: biochemical
T1 construct: Full-length human PKCθ (Carna Biosciences, final 31 ng/mL); purchased Carna Biosciences
T1 sequence (Q04759 whole entry): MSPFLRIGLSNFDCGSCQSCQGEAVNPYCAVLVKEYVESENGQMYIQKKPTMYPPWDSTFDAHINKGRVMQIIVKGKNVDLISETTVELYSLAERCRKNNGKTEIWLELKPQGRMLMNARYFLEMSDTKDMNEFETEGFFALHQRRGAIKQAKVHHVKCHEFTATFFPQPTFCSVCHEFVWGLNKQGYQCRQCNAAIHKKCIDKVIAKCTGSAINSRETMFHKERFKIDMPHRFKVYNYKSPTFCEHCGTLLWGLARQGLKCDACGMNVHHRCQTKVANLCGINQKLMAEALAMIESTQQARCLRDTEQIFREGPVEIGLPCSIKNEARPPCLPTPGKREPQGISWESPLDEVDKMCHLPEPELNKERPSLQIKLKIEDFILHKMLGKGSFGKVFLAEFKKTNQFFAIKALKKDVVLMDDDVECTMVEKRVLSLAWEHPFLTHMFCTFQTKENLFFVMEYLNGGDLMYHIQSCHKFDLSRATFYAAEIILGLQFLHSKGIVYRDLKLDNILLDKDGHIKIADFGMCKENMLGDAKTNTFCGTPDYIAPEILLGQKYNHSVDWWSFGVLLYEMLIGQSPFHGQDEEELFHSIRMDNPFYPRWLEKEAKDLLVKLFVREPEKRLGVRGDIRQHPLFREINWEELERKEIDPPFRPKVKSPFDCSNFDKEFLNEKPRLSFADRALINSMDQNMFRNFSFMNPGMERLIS
Experimental: Test Method 1: Measurement of Human PKCθ Enzyme Inhibition Activity
The test was carried out using a HTRF® KinEASE™ S1 kit (CIS bio). […] Then, 3 μL of an ATP liquid (final 30 μM) was dispensed therein to carry out an enzyme reaction at room temperature for 1 hour.
Ex represents Compound No. of Examples as described later.

[2] = target: T2, Cytochrome P450 (CYP3A4) (Homo sapiens, UniProt P08684); experiment: Measurement of cytochrome P450 (CYP3A4) enzyme inhibition activity in human liver microsome (inhibition tests I and II, midazolam substrate); format: in vitro ADME; conditions: for I (%) Remaining Rate I: inhibition test I: 5 μM test compound, 2 μM midazolam, human liver microsome, 37° C. 20 minutes, no preincubation; for II (%) Remaining Rate II: inhibition test II: 5 μM test compound preincubated 30 minutes with human liver microsome and NADPH, then 2 μM midazolam 20 minutes, relative to test I
T2 construct: human liver microsome (0.1 mg protein/mL); from tissue; host or cells: human liver microsomes
T2 sequence (P08684 whole entry): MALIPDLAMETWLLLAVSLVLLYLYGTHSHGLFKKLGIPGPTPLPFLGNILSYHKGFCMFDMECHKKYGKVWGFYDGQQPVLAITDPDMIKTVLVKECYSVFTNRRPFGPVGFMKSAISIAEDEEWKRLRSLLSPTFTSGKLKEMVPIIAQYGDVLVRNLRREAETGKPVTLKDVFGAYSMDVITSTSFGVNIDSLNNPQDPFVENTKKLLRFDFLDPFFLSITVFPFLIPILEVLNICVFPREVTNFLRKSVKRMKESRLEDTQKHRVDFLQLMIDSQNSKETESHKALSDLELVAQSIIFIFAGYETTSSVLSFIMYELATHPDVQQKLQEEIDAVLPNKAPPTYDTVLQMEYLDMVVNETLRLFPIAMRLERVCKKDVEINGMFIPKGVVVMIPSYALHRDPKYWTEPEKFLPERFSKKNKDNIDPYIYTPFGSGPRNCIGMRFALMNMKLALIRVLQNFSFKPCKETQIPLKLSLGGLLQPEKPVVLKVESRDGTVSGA
Experimental: Test Method 3: Measurement of Cytochrome P450 (CYP3A4) Enzyme Inhibition Activity i) Inhibition Test I (Calculation of Remaining Rate I)
Using a 96-well plate, 2 μM of a substrate (midazolam), 5 μM of a test compound, and human liver microsome (0.1 mg protein/mL) were incubated at 37° C. for 20 minutes in a total amount of 150 μL of a 100 mM phosphate buffer (pH 7.4) containing 0.1 mM EDTA and 1 mM NADPH. Then, the reaction was stopped by adding 130 μl of an aqueous solution containing 80% acetonitrile. Thereafter, the samples were analyzed by LC/MS/MS, and the remaining rates I were calculated using the following equation 1.
Remaining Rate I(%)=Ai,I/Ao,I×100 (Equation 1)
Ai, I=Amount of produced metabolite after reaction in the presence of the test compound in the inhibition test I Ao, I=Amount of produced metabolite after reaction in the absence of the test compound in the inhibition test I ii) Inhibition Test II (Calculation of Remaining Rate II)
Using a 96-well plate, 5 μM of a test compound and human liver microsome (0.1 mg protein/mL) were incubated at 37° C. for 30 minutes in a total amount of 145 μL of a 100 mM phosphate buffer (pH=7.4) containing 0.1 mM EDTA and 1 mM NADPH. Then, 2 μM of midazolam as the substrate was added thereto at a total amount of 150 μL of and incubated at 37° C. for 20 minutes. After the incubation, the reaction was stopped by adding 130 μL of an aqueous solution containing 80% acetonitrile. Thereafter, the samples were analyzed by LC/MS/MS, and the remaining rate II was calculated using the following equation 2.
Remaining Rate II(%)=Ai,II/Ao,II/(Ai,I/Ao,I)×100 (Equation 2)
Ai, II=Amount of produced metabolite after reaction in the presence of the test compound in the inhibition test II […]=Amount of produced metabolite after reaction in the absence of the test compound in the inhibition test II […]
Ex represents No. of the Example Compounds as described below.

[3] = full-length human PKCθ, ATP 30 μM, HTRF, read-out: IC50 (nM), human PKCθ enzyme inhibition

Row | SMILES | IC50 [1, 3] [nM] | I (%) Remaining Rate I [2] [%] | II (%) Remaining Rate II [2] [%] | IC50 [1] [nM]
1 | N#Cc1cnc(NCc2ccccc2OC(F)(F)F)nc1NC[C@]12CC3C[C@H](C1)[C@H](N[C@H]1CC[C@H](O)CC1)[C@@H](C3)C2 (relative stereo) [Example 41, rel-4-[({(1R,3S,4R,5R)-4-[(trans-4-hydroxycyclohexyl)amino]adamantan-1-yl}methyl)amino]-2-{[2-(trifluoromethoxy)benzyl]amino}pyrimidine-5-carbonitrile] | 14 | 80 | 102 | –
2 | CSc1ccccc1CNc1ncc(C#N)c(NC[C@]23CC4C[C@H](C2)[C@@H](N[C@H]2CC[C@H](O)CC2)[C@@H](C4)C3)n1 (relative stereo) [Example 43, rel-4-[({(1R,3S,4R,5R)-4-[(trans-4-hydroxycyclohexyl)amino]adamantan-1-yl]methyl)amino}-2-{[2-(methylsulfanyl)benzyl]amino}pyrimidine-5-carbonitrile] | 0.44 | 76 | 99 | –
3 | COc1ccccc1CNc1ncc(C#N)c(NC[C@]23CC4C[C@H](C2)[C@@H](NCC[C@H](O)CO)[C@@H](C4)C3)n1 (relative stereo) [Example 195] | 3.3 | 88 | 82 | –
4 | COc1ccccc1CNc1ncc(C#N)c(NC[C@]23CC4C[C@H](C2)[C@@H](N2CC(CO)(CO)C2)[C@@H](C4)C3)n1 (relative stereo) [Example 196] | 3.9 | 86 | 87 | –
5 | CSc1ccccc1CNc1ncc(C#N)c(NC[C@]23CC4C[C@H](C2)[C@@H](NCC[C@H](O)CO)[C@@H](C4)C3)n1 (relative stereo) [Example 200] | 0.28 | 95 | 85 | –
6 | N#Cc1cnc(NCc2ccccc2Cl)nc1NC[C@]12CC3C[C@H](C1)[C@@H](NC[C@H]1CC[C@H](O)CC1)[C@@H](C3)C2 (relative stereo) [Example 340] | 1.4 | 91 | 83 | –
7 | CSc1ncccc1CNc1ncc(C#N)c(NC[C@]23CC4C[C@H](C2)[C@@H](NC[C@H]2CC[C@H](O)CC2)[C@@H](C4)C3)n1 (relative stereo) [Example 344] | 0.48 | 89 | 84 | –
8 | C[C@]1(O)CC[C@H](CN[C@@H]2[C@@H]3CC4C[C@H]2C[C@@](CNc2nc(NCc5ccccc5OC(F)F)ncc2C#N)(C4)C3)CC1 (relative stereo) [Example 372] | 1.22 | 78 | 84 | –
9 | N#Cc1cnc(NCc2ccccc2Cl)nc1NC[C@]12CC3C[C@H](C1)[C@@H](NC[C@H]1CC[C@@H](O)CC1)[C@@H](C3)C2 (relative stereo) [Example 401] | 0.65 | 84 | 89 | –
10 | COc1ccccc1CNc1ncc(C#N)c(NC[C@]23CC4C[C@H](C2)[C@@H](N(C)CCCCO)[C@@H](C4)C3)n1 [Example 107] | 5.4 | 77 | 84 | –
11 | CN([C@H]1CC[C@H](O)CC1)[C@@H]1[C@@H]2CC3C[C@H]1C[C@@](CNc1nc(NCc4ccccc4OC(F)(F)F)ncc1C#N)(C3)C2 [Example 115] | 3.5 | 75 | 90 | –
12 | N#Cc1cnc(NCc2ccccc2Cl)nc1NC[C@]12CC3C[C@H](C1)[C@@H](NC1CCNCC1)[C@@H](C3)C2 [Example 169] | 0.36 | 83 | 89 | –
13 | COc1ccccc1CNc1ncc(C#N)c(NC[C@]23CC4C[C@H](C2)[C@@H](NCC(O)CCO)[C@@H](C4)C3)n1 (some centres unmarked) [Example 189] | 1.7 | – | – | –
14 | N#Cc1cnc(NCc2ccccc2Cl)nc1NC[C@]12CC3C[C@H](C1)[C@@H](NC1CCN(C(=O)CO)CC1)[C@@H](C3)C2 [Example 205] | 0.83 | – | – | –
15 | N#Cc1cnc(NCc2ccccc2Cl)nc1NC[C@]12CC3C[C@H](C1)[C@@H](N1CC(O)C1)[C@@H](C3)C2 [Example 211] | 0.96 | – | – | –
16 | N#Cc1cnc(NCc2ccccc2Cl)nc1NC[C@]12CC3C[C@H](C1)[C@@H](NCC1CCN(CCF)CC1)[C@@H](C3)C2 [Example 219] | – | 76 | 94 | 0.4
17 | N#Cc1cnc(NCc2ccccc2OC(F)(F)F)nc1NC[C@]12CC3C[C@H](C1)[C@@H](N[C@H]1CC[C@@H](N)CC1)[C@@H](C3)C2 [Example 303] | 0.065 | 75 | 88 | –
18 | N#Cc1cnc(NCc2ccccc2Cl)nc1NC[C@]12CC3C[C@H](C1)C(N1CCNCC1)[C@@H](C3)C2 (some centres unmarked) [Example 319] | 4 | – | – | –
19 | N#Cc1cnc(NCc2ccccc2Cl)nc1NC[C@]12CC3C[C@H](C1)[C@@H](NCC1CCNCC1)[C@@H](C3)C2 [Example 321] | 0.25 | 90 | 92 | –
20 | N#Cc1cnc(NCc2ccccc2OC(F)(F)F)nc1NCCC(=O)N1CCCNCC1 [Example 387] | 77 | – | – | –
